US9034825B2, “Treatment of myocardial injury with humanin analogs” (Albert Einstein College of Medicine of Yeshiva University, priority 2007, dated 2015)
“Also recorded” adds a separate entry of the source.

Columns and labels:
primary hepatocytes = assay: Glucose production of primary isolated hepatocytes; assay type: cell-based; details: rat hepatocytes explant cultures
Experimental: Single-cell suspensions of hepatocytes were obtained from perfusions of Sprague-Dawley rats using the procedure of Berry and Friend (1969) and the perfusion mixture of Leffert et al (1979). Hepatocyte glucose production was estimated after a 24 hr treatment with HN, F6A and saline as described before (Berg et al. 2001). In a separate set of experiment, hepatocytes were lysed, and protein extracted in RIPA lysis buffer at 30, 60 and 360 min post treatment with FIN, F6A and saline. The cell lysates were then subject to western blotting for Phospho-STAT3 (Tyr705), total-STAT3, Phospho-AKT (Ser473), and total-AKT expression (antibodies purchased from Cell Signaling, #9131, #9132, #9271, #9272).

Sprague-Dawley rats = assay: ICV infusion of IGF-1, IGFBP-3 or NLS mutant with basal and hyperinsulinemic clamp; assay type: in vivo, rat
From the text: Young (3 mo old, n=6 in each group), male Sprague-Dawley rats (Charles River Laboratories, Wilmington, Mass.) were used for this study. Rats were housed in individual cages and were subjected to a standard light (6:00 AM to 6:00 PM)—dark (6:00 PM to 6:00 AM) cycle. All rats were fed ad libitum using regular rat chow that consisted of 64% carbohydrate, 30% protein, and 6% fat with a physiological fuel value of 3.3-kcal/g chow. In the rats that received ICV infusions, 2 to 4 weeks before the in vivo study, the rats were anesthetized by inhalation of isoflurane and a cannula was placed ICV in the third ventricle for infusions of IGF-1, IGFBP-3 or IGFBP-3 mutant or artificial cerebrospinal fluid (aCSF), as previously described (Muzumdar et al., 2003) (FIG. 1). Briefly, a 26-gauge stainless steel guide cannula (Plastics One, Roanoke, Va.) was chronically implanted into the third ventricles using the following coordinates from bregma: anterior-posterior; +0.2 mm dorsal-ventral; −9.0 mm medial-lateral; 0.0 directly on the mid-sagittal suture, followed by a 28-gauge dummy cannula, inserted to prevent clogging of the guide cannula. The implant was secured to the skull with Caulk Grip dental cement, and the skin was closed over the implant using wound clips. The recovery of rats from the surgical stress was monitored with daily weight, food intake, and movement.
Upon recovery of body weight, usually a week, indwelling catheters were placed in the right internal jugular vein and in the left carotid artery (Muzumdar et al., 2003). The venous catheter was extended to the level of the right atrium, and the arterial catheter was advanced to the level of the aortic arch. Recovery was continued until body weight was within 3% of the pre-operative weight (˜4-6 days). In the rats that received peripheral IGFBP-3, only the vascular catheters were placed.
Studies were performed in unrestrained rats using the insulin clamp technique, in combination with high performance liquid chromatography-purified [3-^3H]glucose and [U-^14C]lactate infusions, as described previously (Liu et al., 1998). Food was removed for ˜5 h before the in vivo protocol. All studies lasted 360 min and included a 120-min equilibration period, a 120-min basal period for assessment of the basal glucose turnover, and a 120-min hyperinsulinemic clamp period. All rats received ICV infusions (bolus followed by continuous ICV infusions of IGF-1, IGFBP-3, IGFBP-3 mutant or aCSF, depending on the group) over the entire 6 hours of the study. At the beginning of the basal period and 120 min before starting the glucose/insulin infusions, a primed-continuous infusion of high performance liquid chromatography-purified [3-^3H]glucose (NEN Life Science Products, Boston, Mass.; 20 μCi of bolus, 0.2 μCi/min) was initiated and maintained throughout the remaining 4 h of the study. In the final 2 hours of the study, the rats were subjected to hyperinsulinemic clamp. The protocol followed during the insulin clamp study was similar to that previously described (Liu et al., 1998). Briefly, a primed-continuous infusion of regular insulin (3 milliunits/kg·min) was administered, and a variable infusion of a 25% glucose solution was started and periodically adjusted to clamp the plasma glucose concentration at 7-8 mM. To prevent endogenous insulin secretion and in order to control for possible effects of ICV infusions on the endocrine pancreas, somatostatin (1.5 μg/kg·min) was also infused in all the groups. [U-^14C]Lactate (5 μCi of bolus/0.25 μCi/min) was infused during the last 10 min of the study.
A bolus of hIGF-1 (0.3 mcg, a gift from Tercica, South San Francisco) was followed by a continuous infusion over 6 hours (total dose of 1 mcg, 0.06 μg/kg/hr).
A bolus of non glycosylated hIGFBP-3 (1.25 μg, generously provided by Celtrix, Mountain View Calif.) was followed by a continuous infusion over 6 hours (total dose of 5.25 mcg, 0.26 μg/kg/hr). […]

[1] = ICV IGFBP-3, insulin clamp 3 mU/kg/min
[2] = ICV IGFBP-3 or NLS mutant over 6 h, basal period
[3] = ICV IGFBP-3 or NLS mutant over 6 h, hyperinsulinemic clamp
[4] = ICV infusion, hyperinsulinemic clamp

Compound	glucose production rates with and without HN (primary hepatocytes)	decrease in peripheral glucose uptake (Sprague-Dawley rats; [1]) [%]	increase in hepatic glucose production compared to controls (Sprague-Dawley rats; [1]) [%]	Glycogen synthesis, Basal (Sprague-Dawley rats; [2])	Glycolysis, Basal (Sprague-Dawley rats; [2]) [mg/kg/min]	HGP, Basal (Sprague-Dawley rats; [2]) [mg/kg/min]	Glycogen synthesis, Clamp (Sprague-Dawley rats; [3])	Glycolysis, Clamp (Sprague-Dawley rats; [3]) [mg/kg/min]	HGP, Clamp (Sprague-Dawley rats; [3]) [mg/kg/min]	Rd, Clamp (Sprague-Dawley rats; [3]) [mg/kg/min]	GIR, Clamp (Sprague-Dawley rats; ICV IGFBP-3 or NLS mutant over 6 h, hyperinsulinemic clamp 3 mU/kg/min) [mg/kg/min]	FFA (Sprague-Dawley rats; ICV IGFBP-3 or NLS mutant over 6 h, hyperinsulinemic clamp, last 60 min) [mEq/l]	h-IGFBP-3 (Sprague-Dawley rats; ICV IGFBP-3 or NLS mutant over 6 h, peripheral plasma) [ng/mL]	gluconeogenesis (Sprague-Dawley rats; [4]) [mg/kg/min]	glycogenolysis / hepatic glucose fluxes compared to controls (Sprague-Dawley rats; [4])	insulin induced suppression of FFA compared to controls (Sprague-Dawley rats; [4])	whole body glucose disposal / peripheral glucose uptake (Rd) compared to controls (Sprague-Dawley rats; ICV infusion, hyperinsulinemic clamp, final 60 min)	infused human peptide in the rat periphery (Sprague-Dawley rats; after ICV infusion)
CC[C@H](C)[C@H](NC(=O)[C@H](CCC(=O)O)NC(=O)[C@H](CO)NC(=O)[C@@H](NC(=O)[C@H](CC(C)C)NC(=O)[C@H](CC(C)C)NC(=O)[C@H](CC(C)C)NC(=O)[C@H](CC(C)C)NC(=O)[C@H](CS)NC(=O)[C@H](CO)NC(=O)[C@H](Cc1ccccc1)NC(=O)CNC(=O)[C@H](CCCNC(=N)N)NC(=O)[C@@H]1CCCN1C(=O)[C@H](C)NC(=O)[C@@H](N)CCSC)[C@@H](C)O)C(=O)N[C@@H](CC(=O)O)C(=O)N[C@@H](CC(C)C)C(=O)N1CCC[C@H]1C(=O)N[C@H](C(=O)N[C@@H](CCCCN)C(=O)N[C@@H](CCCNC(=N)N)C(=O)N[C@@H](CCCNC(=N)N)C(=O)N[C@@H](C)C(=O)O)C(C)C [Humanin, maprgfscll lltseidlpv krra]	not different																	
IGFBP-3: non glycosylated hIGFBP-3 (IGF binding protein-3), provided by Celtrix		~30	45	4.62 ± 0.69	9.33 ± 1.27	13.95 ± 0.99	4.46 ± 0.68	9.95 ± 1.05	7.08 ± 0.59	14.01 ± 0.82	6.95 ± 1.11	0.72 ± 0.06	0	0.37 ± 0.1	significant increase	significantly reduced	significantly decreased	No hIGFBP-3 was detected; also recorded: No human IGF-1, hIGFBP-3 or NLS-IGFBP-3 was identified
